Laboratory results taken from patent publication US20120004205A1, “IL-13 INDUCED GENE SIGNATURE FOR EOSINOPHILIC ESOPHAGITIS” (Cincinnati Children's Hospital Medical Center, priority 2008, published 2012).

Tests used:
STAT6:ER = assay: Eotaxin-3 promoter luciferase reporter in TE-7 cells cotransfected with STAT6:ER; format: cell-based, human; conditions: TE-7 cotransfected with eotaxin-3 promoter construct and STAT6:ER, within 24 hours
Description: Plasmids were constructed or obtained as described before Blanchard, C. et al., (2005) Int. J. Biochem Cell Biol. 37: 2559-2573. Briefly, plasmid denoted P800, P500 and P100 contained respectively the first 800 by 500 by or 100 by of the human eotaxin-3 gene promoter (pEO3) subcloned into KpnI/HindIII-digested pGL3-Basic (Promega) as previously described Blanchard, C. et al., (2005) Int. J. Biochem. Cell Biol. 37: 2559-2579. Directed mutagenesis of the eotaxin-3 promoter was performed using Quickchange Kit from Stratagene according to the manufacturer's instructions using 2 primer sets: (first set) 5′-CCCAACCACAAGAAggtacc[…]-3′ and 5′-[…] ggtacc TTCTGTGGTTGGG-3′ which include a KpnI restriction site in the -89 TTCtctcgGAA STAT6 consensus site and (second set) 5′-GTAACTTAGTTCAG ggatcc […]-3′ and 5′-[…] ggatcc CTGAACTAAGTTAC-3′ which include a […] restriction site in the -698 TTCactgGAA STAT6 consensus site. […]
Approximately 10^4 TE-7 cells per well (24 well plate) were plated on day 1 and transfected by Lipofectamine™ reagent on day 2. […] Cells were then lysed and the Firefly and Renilla luciferase activities were measured in a luminometor (Microlite, Dynatec Laboratories, Inc) using the Dual Luciferase Reporter assay system (Promega) in accordance with the manufacturer's instructions. […]

[1] = test system: TE-1 esophageal cell line; assay: Eotaxin-3 mRNA expression after IL-13 stimulation, real-time PCR; format: cell-based, human; conditions: TE-1 cells, IL-13 100 ng/mL
[2] = test system: TE-6 esophageal cell line; assay: as above; format: cell-based, human; conditions: TE-6 cells, IL-13 100 ng/mL
[3] = test system: TE-7 esophageal cell line; assay: as above; format: cell-based, human; conditions: TE-7 cells, IL-13 100 ng/mL
[4] = test system: TE-13 esophageal cell line; assay: as above; format: cell-based, human; conditions: TE-13 cells, IL-13 100 ng/mL
TE-13 cells = assay: Eotaxin-3 protein released in culture supernatant, ELISA; format: cell-based, human; conditions: IL-13 100 ng/mL for 24 hours
Description: (§1) Eotaxin-1, 2 and 3 Duo set ELISA were performed according to the manufacturer's instruction (R&D) and as previously described Blanchard, C. et al., (2006) J. Clin. Invest. 116: 536-547. IL-13 Quantikine® Kit (R&D) was used to quantify IL-13 protein levels. The detection limits were respectively […] for eotaxins-1, -2, -3 and IL-13, respectively. The optical density of each well was read at a wavelength of 450 nm.

TE-7 cells [5] = assay: as above; format: cell-based, human; conditions: IL-13 100 ng/mL for 24 hours
Description: as §1

human eotaxin-3 promoter = assay: Eotaxin-3 promoter luciferase reporter in transfected TE-7 cells, IL-13 stimulation; format: cell-based
Description: Plasmids were constructed or obtained as described before Blanchard, C. et al., (2005) Int. J. Biochem Cell Biol. 37: 2559-2573. Briefly, plasmid denoted P800, P500 and P100 contained respectively the first 800 by 500 by or 100 by of the human eotaxin-3 gene promoter (pEO3) subcloned into KpnI/HindIII-digested pGL3-Basic (Promega) as previously described Blanchard, C. et al., (2005) Int. J. Biochem. Cell Biol. 37: […]. Directed mutagenesis of the eotaxin-3 promoter was performed using Quickchange Kit from Stratagene according to the manufacturer's instructions using 2 primer sets: (first set) 5′-CCCAACCACAAGAAggtacc[…]-3′ and 5′-[…] ggtacc TTCTGTGGTTGGG-3′ which include a KpnI restriction site in the -89 TTCtctcgGAA STAT6 consensus site and (second set) 5′-GTAACTTAGTTCAG ggatcc […]-3′ and 5′-[…] ggatcc CTGAACTAAGTTAC-3′ which include a […] restriction site in the -698 TTCactgGAA STAT6 consensus site. The STAT6:ER plasmid was constructed in the pCDNA3 plasmid as previously described Kamogawa, Y. et al., (1998) J. Immunol. 161:1074-1077.
Approximately 10^4 TE-7 cells per well (24 well plate) were plated on day 1 and transfected by Lipofectamine™ reagent on day 2. Briefly, […] of reporter plasmids were mixed with 3 μl of Lipofectamine™ reagent in […] of serum-free RPMI medium. In all transfection experiments, a plasmid with a Renilla luciferase reporter gene under the control of a thymidine kinase promoter (pHRL-TK, […]) was used as an internal control. In co-transfection experiments with DNSTAT6 or pCDNA3-STAT6:ER (ER-estrogen receptor) plasmids, the empty vectors pCEFL HA or pCDNA3 were added to each set of transfections, respectively, to ensure that each well received the same amount of DNA. Complete medium (0.5 mL) was added and cells were incubated for 48 h to 72 h. The transfection mixture was then replaced with fresh complete medium for an additional 12 h period before cytokine treatment. […] Cells were then lysed and the Firefly and Renilla luciferase activities were measured in a luminometor (Microlite, Dynatec Laboratories, Inc) using the Dual Luciferase Reporter assay system (Promega) in accordance with the manufacturer's instructions.
Immunol. 42: 295-303; Hoeck, J. and Woisetschlager, M., (2001) J. Immunol. 167: 3216-3222; Yuan, Q. et al., (2006) Eur. J. Immunol. 36: 2700-2714. To determine the STAT6 element or elements involved in the eotaxin-3 stimulation observed in esophageal cell lines, the TE-7 cell line was transiently transfected with the full-length eotaxin luciferase reporter plasmid and truncated versions (FIG. 3). […] The TE-7 cell line was transfected with truncated promoter constructs or with a full-length promoter containing specific mutations within the STAT6 binding sites to map the relevant cis-acting promoter sequences (FIG. 3B).

TE-7 cells [6] = assay: Eotaxin-3 mRNA stability with actinomycin-D; format: cell-based, human
[7] = test system: primary esophageal keratinocytes from EE patients; assay: IL-13-induced eotaxin expression ex vivo, real-time PCR; format: cell-based, human
Excerpt: (§2) Briefly, biopsies were digested with trypsin twice.

[8] = test system: primary esophageal keratinocytes from EE patients; assay: Eotaxin-3 protein release into supernatant ex vivo, ELISA; format: cell-based, human; conditions: IL-13 100 ng/mL
Description: as §2, §1

[9] = test system: primary esophageal epithelial cells from patients with EE; assay: Global transcript-expression profile (microarray) of IL-13-stimulated primary cells; format: cell-based, human
Description: as §2
For each patient, one distal esophageal mucosal biopsy sample was immersed in RNA, later RNA stabilization reagent (Qiagen) and stored at 4 C. for <15 days. Total RNA was extracted using the RNAeasy Mini Kit (Qiagen) according to the manufacturer's recommendations. Hybridization to DNA microarray was performed by the MicroarrayCore at Cincinnati Children's Hospital Medical Center, as previously reported Blanchard, C. et al., (2006) J. Clin. Invest. 116: 536-547. The genome wide human Affymetrix U133A plus 2.0 Genechip® was used, and gene transcript levels were determined using algorithms in the Microarray Analysis Suite and GeneSpring software (Silicon Genetics) as previously described Blanchard, C. et al., (2006) J. Clin. Invest. 116: 536-547. […] Response to therapy was defined as <1 eosinophils/high power field (hpf) and no epithelial cell hyperplasia as described herein.
The list of differentially expressed transcripts was subjected to gene ontology analysis using DAVID (database for annotation, visualization and integrated discovery) and EASE (expression analysis systematic explorer), a web-based (hyper text transfer protocol davidabccncifcrfgov) application that allows access to a relational database of functional annotations.
Primary esophageal epithelial cells from the esophagi of patients with EE were cultured and stimulated with 100 ng/mL IL-13 for 48 hours to identify IL-13-induced esophageal epithelial genes. The mRNA was subjected to global transcript-expression profile analysis and normalized pair wise to unstimulated controls. Genes were filtered to fold change in biopsy specimens from patients with EE compared with those from healthy patients and IL-13 stimulated epithelial cells. A highly significant positive correlation (P<0.0001, Spearman) between modified genes in biopsy specimens from patients with EE and in IL-13-stimulated keratinocytes was observed (FIG. 4C). […] Blanchard, C. et al., (2006) J. Clin. Invest.

[10] = IL-13 100 ng/mL, 48 hours, P<0.05

`CC/C(=C(\c1ccc(O)cc1)c1ccc(OCCN(C)C)cc1)c1ccccc1` [4-hydroxytamoxifene] was tested, and the “induction of eotaxin-3 promoter luciferase activity” value (STAT6:ER) was “significant (P<0.01) induction”.
For “IL-13: cytokine Interleukin 13 (Preprotech) added to culture media to stimulate esophageal cells”, the “Eotaxin-3 mRNA expression increase” value [1] was 4 fold, the “Eotaxin-3 mRNA expression increase” value [2] was 8 fold and the “Eotaxin-3 mRNA expression increase” value [3] was 77 fold. The “Eotaxin-3 mRNA expression increase” value [4] was 1007 fold, the “eotaxin-3 released in the supernatant” value (TE-13 cells) was 0.55 ± 0.37 µg/mL and the “eotaxin-3 released in the supernatant” value (TE-7 cells [5]) was 2.5 ± 0.7 µg/mL. For the same molecule, the “increase of luciferase activity, full-length reporter plasmid” value (human eotaxin-3 promoter; TE-7, IL-13 10 ng/mL) was 2.7+/−0.8 fold, the “increase of luciferase activity, full-length reporter plasmid” value (human eotaxin-3 promoter; TE-7, IL-13 100 ng/mL) was 10.8+/−2.2 fold and the “IL-13-induced luciferase activity, construct with mutated -89 binding site” value (human eotaxin-3 promoter; TE-7, after IL-13 stimulation) was “no increase in luciferase activity”. For the same molecule, the “IL-13-induced promoter activity, construct P100 (truncated proximal STAT6 site)” value (human eotaxin-3 promoter; TE-7, after IL-13 stimulation) was “no activity”, the “IL-13-induced promoter activity, promoter containing 800 or 500 bp” value (human eotaxin-3 promoter; TE-7, after IL-13 stimulation) was “full IL-13-induced activity” and the “stability of eotaxin-3 mRNA, IL-13 treated versus non-treated” value (TE-7 cells [6]) was “not significantly different”. For the same molecule, the “increase of eotaxin-3 mRNA expression” value ([7]; 48 hours after 10 ng/mL IL-13) was 1000 fold, the “increase of eotaxin-3 mRNA expression” value ([7]; 48 hours after 100 ng/mL IL-13) was 10.000 fold and the “release of eotaxin-3 protein into the supernatant” value [8] was 6.03 ± 0.8 ng/mL. For the same molecule, the “genes downregulated by 2-fold or greater” value ([9]; IL-13 100 ng/mL, 48 hours) was 116 genes, the “genes downregulated by more than 1.5-fold” value ([9]; IL-13 100 ng/mL, 48 hours) was 553 genes and the “genes modified by 2-fold or greater” value ([9]; IL-13 100 ng/mL, 48 hours) was 371 genes. The “genes modified by more than 1.5-fold” value ([9]; IL-13 100 ng/mL, 48 hours) was 1333 genes, the “genes significantly modified compared with unstimulated cells (P<0.01)” value ([9]; IL-13 100 ng/mL, 48 hours) was 952 genes and the “genes significantly modified compared with unstimulated cells (P<0.05)” value ([9]; IL-13 100 ng/mL, 48 hours) was 4698 genes. The “genes upregulated by 2-fold or greater” value ([9]; IL-13 100 ng/mL, 48 hours) was 255 genes, the “genes upregulated by more than 1.5-fold” value ([9]; IL-13 100 ng/mL, 48 hours) was 780 genes and the “IL-13-induced genes overlapping with the EE transcriptome” value [9, 10] was 126 genes. The “share of the EE transcriptome overlapped by IL-13-induced genes” value [9, 10] was 22%, the “involucrin downregulation (microarray)” value ([9]; IL-13-stimulated cells) was 4.8 fold and the “TNFAIP6 expression (microarray)” value ([9]; IL-13-stimulated keratinocytes) was “highly overexpressed”. For the same molecule, the “cadherin-26 upregulation (microarray)” value ([9]; IL-13-stimulated keratinocytes) was 50 fold, the “eotaxin-3 upregulation (microarray)” value ([9]; IL-13-stimulated keratinocytes) was 279 fold and the “eotaxin-1 and eotaxin-2 expression (microarray)” value ([9]; IL-13-treated primary keratinocyte cultures) was “not overexpressed”.
